One may read the IC50 as the concentration at which inhibition is half-maximal.

Counter-ions that a name gives are not always drawn.

In the assay the target is T1, Full-length USP19 (Homo sapiens, UniProt O94966).
T1 construct: Full-length USP19 was purchased from Boston Biochem (E-576); purchased Boston Biochem E-576
T1 sequence (O94966 1-1318): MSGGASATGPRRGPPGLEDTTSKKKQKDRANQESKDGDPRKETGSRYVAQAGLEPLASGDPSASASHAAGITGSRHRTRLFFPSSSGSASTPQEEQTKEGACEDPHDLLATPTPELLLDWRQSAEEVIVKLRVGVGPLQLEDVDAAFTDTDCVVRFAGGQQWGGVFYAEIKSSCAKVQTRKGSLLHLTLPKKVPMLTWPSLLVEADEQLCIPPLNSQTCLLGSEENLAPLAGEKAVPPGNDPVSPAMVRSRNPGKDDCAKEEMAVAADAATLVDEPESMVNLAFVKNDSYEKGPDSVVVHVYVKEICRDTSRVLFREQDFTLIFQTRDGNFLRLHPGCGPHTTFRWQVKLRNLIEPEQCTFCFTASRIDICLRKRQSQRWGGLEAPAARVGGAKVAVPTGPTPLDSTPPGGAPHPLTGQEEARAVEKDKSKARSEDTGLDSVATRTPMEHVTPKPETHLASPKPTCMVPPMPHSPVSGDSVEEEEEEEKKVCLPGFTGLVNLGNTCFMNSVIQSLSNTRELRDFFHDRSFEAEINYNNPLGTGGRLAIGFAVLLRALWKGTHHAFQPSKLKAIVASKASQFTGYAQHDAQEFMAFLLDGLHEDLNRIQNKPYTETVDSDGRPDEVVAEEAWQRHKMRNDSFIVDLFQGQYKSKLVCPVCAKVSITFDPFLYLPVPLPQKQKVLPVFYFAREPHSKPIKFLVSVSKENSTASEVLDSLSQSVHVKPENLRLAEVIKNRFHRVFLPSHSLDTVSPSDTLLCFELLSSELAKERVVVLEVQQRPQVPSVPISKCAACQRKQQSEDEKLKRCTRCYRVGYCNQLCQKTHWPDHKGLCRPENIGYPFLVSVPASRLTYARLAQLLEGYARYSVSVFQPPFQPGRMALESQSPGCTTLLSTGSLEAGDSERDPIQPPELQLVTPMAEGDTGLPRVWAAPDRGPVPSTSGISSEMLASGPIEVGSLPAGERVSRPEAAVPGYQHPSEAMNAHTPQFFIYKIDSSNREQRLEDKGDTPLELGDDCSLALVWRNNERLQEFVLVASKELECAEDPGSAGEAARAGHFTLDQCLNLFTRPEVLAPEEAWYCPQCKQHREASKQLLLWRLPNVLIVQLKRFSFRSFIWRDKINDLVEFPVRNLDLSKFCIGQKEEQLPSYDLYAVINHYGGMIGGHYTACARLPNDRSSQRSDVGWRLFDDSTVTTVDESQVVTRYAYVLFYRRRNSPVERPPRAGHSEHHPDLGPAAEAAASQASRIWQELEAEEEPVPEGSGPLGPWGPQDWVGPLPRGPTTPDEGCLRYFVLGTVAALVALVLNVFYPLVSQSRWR
Kind of assay: USP19 fluorescence polarisation (FP) assay, Ubiquitin-Lys-TAMRA substrate. The class given is biochemical. The settings on record: average of at least two duplicate experiments. The gist of the method:
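Full-length human USP19 (added at 2.5 nM) was preincubated 30 min at RT with inhibitor (serial dilutions 200 μM to 2 μM) in 50 mM HEPES pH 7.4, 150 mM NaCl, 5 mM DTT, 0.05% BSA, 0.05% CHAPS. Ubiquitin-Lys-TAMRA isopeptide substrate (added at 500 nM) started the reaction, and FP (Ex 530/Em 575 nm) was read every 15 min over 90 min. IC50 came from non-linear regression of signal normalised to no-compound control, averaged over at least two duplicate experiments.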
For orientation: Fluorescence polarisation rises when a labelled molecule tumbles more slowly, as on binding a larger partner.
For the compound `COC(=O)CN[C@@H]1CCN(C(=O)N2CC[C@@H](Cn3cnc(-c4ccccc4)cc3=O)C3(CCCC3)C2)[C@H](c2ccccc2)C1` [Example 105, Methyl ((2S,4R)-1-((R)-10-((6-oxo-4-phenylpyrimidin-1(6H)-yl)methyl)-7-azaspiro[4.5]decane-7-carbonyl)-2-phenylpiperidin-4-yl)glycinate], the IC50 was below 10 nM.

With `O=C(N1CC[C@@H](Cn2cnc(-c3ccccc3)cc2=O)C2(CCCC2)C1)N1CC[C@@H](NCCO)C[C@H]1c1ccccc1` [Example 161, 3-(((R)-7-((2S,4R)-4-((2-Hydroxyethyl)amino)-2-phenylpiperidine-1-carbonyl)-7-azaspiro[4.5]decan-10-yl)methyl)-6-phenylpyrimidin-4(3H)-one], the half-inhibitory concentration (IC50) was below 10 nM.

Take `O=C(N1CC[C@H](Cn2ccc(-c3ccccc3)cc2=O)C2(CCCC2)C1)N1CCNC[C@H]1c1ccccc1` (single isomer, unassigned) [Example 15]: the IC50 is 1000 to 20000 nM.

For `CN[C@@H]1CCN(C(=O)N2CC[C@@H](Cn3cnc(-c4ccccc4C)cc3=O)C3(CCCC3)C2)[C@H](c2ccc(F)c(F)c2)C1` [Example 139, 3-(((R)-7-((2S,4R)-2-(3,4-Difluorophenyl)-4-(methylamino)piperidine-1-carbonyl)-7-azaspiro[4.5]decan-10-yl)methyl)-6-(0-tolyl)pyrimidin-4(3H)-one], the IC50 is below 10 nM.

Turning to `O=C(N[C@@H]1CCN(C(=O)N2CC[C@@H](Cn3ccc(-c4ccccc4)cc3=O)C3(CCCC3)C2)[C@H](c2ccccc2)C1)C1CC1` [Example 96, N-((2S,4R)-1-((R)-10-((2-Oxo-4-phenylpyridin-1(2H)-yl)methyl)-7-azaspiro[4.5]decane-7-carbonyl)-2-phenylpiperidin-4-yl)cyclopropanecarboxamide], the 50% inhibitory concentration (IC50) lay in the range of 10 to 100 nM.

For the compound `O=C(N1CC[C@@H](Cn2cnc3ccc(F)cc3c2=O)C2(CCCC2)C1)N1CC[C@@H](N2CCOCC2)C[C@H]1c1ccccc1` [Example 171, 6-Fluoro-3-(((R)-7-((2S,4R)-4-morpholino-2-phenylpiperidine-1-carbonyl)-7-azaspiro[4.5]decan-10-yl)methyl)quinazolin-4(3H)-one hydrochloride], the IC50 fell in the range of 100 to 1000 nM.

In the case of `CCN[C@@H]1CCN(C(=O)N2CC[C@@H](Cn3cnc(-c4ccccc4)cc3=O)C3(CCCC3)C2)[C@H](c2ccccc2)C1` [Example 62, 3-(((R)-7-((2S,4R)-4-(Ethylamino)-2-phenylpiperidine-1-carbonyl)-7-azaspiro[4.5]decan-10-yl)methyl)-6-phenylpyrimidin-4(3H)-one], the IC50 is below 10 nM.

Take `CCN[C@@H]1CCN(C(=O)N2CC[C@@H](Cn3ccc(-c4ccccc4)cc3=O)C3(CCCC3)C2)[C@H](c2ccccc2)C1` [Example 45, 1-(((R)-7-((2S,4R)-4-(Ethylamino)-2-phenylpiperidine-1-carbonyl)-7-azaspiro[4.5]decan-10-yl)methyl)-4-phenylpyridin-2(1H)-one]: the IC50 is below 10 nM.

Consider `C[C@H](CC(F)(F)F)C(=O)N1CCC(Cn2cnc(-c3ccccc3)cc2=O)C2(CCCC2)C1` (stereo partly drawn) [Example 4, 6-Phenyl-3-((7-((R)-4,4,4-trifluoro-2-methylbutanoyl)-7-azaspiro[4.5]decan-10-yl)methyl)pyrimidin-4(3H)-one], for which the IC50 was 1000 to 20000 nM.

Take `CN(C)[C@@H]1CCN(C(=O)N2CC[C@@H](Cn3cnc4ccc(F)cc4c3=O)C3(CCCC3)C2)[C@H](c2cc(F)ccc2F)C1` [Example 174, 3-(((R)-7-((2S,4R)-2-(2,5-Difluorophenyl)-4-(dimethylamino)piperidine-1-carbonyl)-7-azaspiro[4.5]decan-10-yl)methyl)-6-fluoroquinazolin-4(3H)-one]: the concentration for half-maximal inhibition (IC50) is below 10 nM.

With `N[C@@H]1CCN(C(=O)N2CC[C@@H](Cn3ccc(-c4ccccc4)cc3=O)C3(CCCC3)C2)[C@H](c2cccc(F)c2)C1` [Example 65, 1-(((R)-7-((2S,4R)-4-Amino-2-(3-fluorophenyl)piperidine-1-carbonyl)-7-azaspiro[4.5]decan-10-yl)methyl)-4-phenylpyridin-2(1H)-one], the IC50 is below 10 nM.

With `O=C(N1CC[C@@H](Cn2cnc(-c3ccccc3)cc2=O)C2(CCCC2)C1)N1CC[C@@H](Nc2ccccc2)C[C@H]1c1ccccc1` [Example 150, 6-Phenyl-3-(((R)-7-((2S,4R)-2-phenyl-4-(phenylamino)piperidine-1-carbonyl)-7-azaspiro[4.5]decan-10-yl)methyl)pyrimidin-4(3H)-one], the IC50 lay in the range of 1000 to 20000 nM.

For the compound `N[C@@H]1CCN(C(=O)N2CC[C@@H](Cn3cnc4ccc(F)cc4c3=O)C3(CCCC3)C2)[C@H](c2cc(F)cc(F)c2)C1` [Example 181, 3-(((R)-7-((2S,4R)-4-Amino-2-(3,5-difluorophenyl)piperidine-1-carbonyl)-7-azaspiro[4.5]decan-10-yl)methyl)-6-fluoroquinazolin-4(3H)-one hydrochloride], the IC50 is below 10 nM.

`COc1ccccc1-c1cc(=O)n(C[C@]2(OC)CCN(C(=O)N3CC[C@@H](NC(C)C)C[C@H]3c3cc(F)ccc3F)CC23CCCC3)cn1` [Example 190, 3-(((S)-7-((2S,4R)-2-(2,5-Difluorophenyl)-4-(isopropylamino)piperidine-1-carbonyl)-10-methoxy-7-azaspiro[4.5]decan-10-yl)methyl)-6-(2-methoxyphenyl)pyrimidin-4(3H)-one]: the IC50 is below 10 nM.

As for `COc1ccccc1-c1cc(=O)n(C[C@@H]2CCN(C(=O)N3CCNC[C@H]3c3cccc(F)c3)CC23CCCC3)cn1` [Example 115, 3-(((R)-7-((R)-2-(3-Fluorophenyl)piperazine-1-carbonyl)-7-azaspiro[4.5]decan-10-yl)methyl)-6-(2-methoxyphenyl)pyrimidin-4(3H)-one], the IC50 is below 10 nM.

For `CC1(N[C@@H]2CCN(C(=O)N3CC[C@@H](Cn4cnc(-c5ccccc5)cc4=O)C4(CCCC4)C3)[C@H](c3ccccc3)C2)CC1` [Example 151, 3-(((R)-7-((2S,4R)-4-((1-Methylcyclopropyl)amino)-2-phenylpiperidine-1-carbonyl)-7-azaspiro[4.5]decan-10-yl)methyl)-6-phenylpyrimidin-4(3H)-one], the half-maximal inhibitory concentration (IC50) is below 10 nM.

As for `COc1ccccc1-c1ccn(C[C@@H]2CCN(C(=O)N3CC[C@@H](N)C[C@H]3c3cccc(F)c3)CC23CCCC3)c(=O)c1` [Example 88, 1-(((R)-7-((2S,4R)-4-Amino-2-(3-fluorophenyl)piperidine-1-carbonyl)-7-azaspiro[4.5]decan-10-yl)methyl)-4-(2-methoxyphenyl)pyridin-2(1H)-one], the IC50 is below 10 nM.

Take `O=C(N1CC[C@@H](Cn2cnc(-c3ccccc3)cc2=O)C2(CCCC2)C1)N1CC[C@@H](NCc2ccccn2)C[C@H]1c1ccccc1` [Example 144, 6-Phenyl-3-(((R)-7-((2S,4R)-2-phenyl-4-((pyridin-2-ylmethyl)amino)piperidine-1-carbonyl)-7-azaspiro[4.5]decan-10-yl)methyl)pyrimidin-4(3H)-one]: the IC50 is below 10 nM.

As to `N[C@@H]1CCN(C(=O)N2CCC(Cn3cnc(C4CC4)cc3=O)C3(CCCC3)C2)[C@H](c2ccccc2)C1` (stereo partly drawn) [Example 29, 3-((7-((2S,4R)-4-Amino-2-phenylpiperidine-1-carbonyl)-7-azaspiro[4.5]decan-10-yl)methyl)-6-cyclopropyl-pyrimidin-4(3H)-one], the half-inhibitory concentration (IC50) was below 10 nM.

Turning to `CN[C@@H]1CCN(C(=O)N2CC[C@@H](Cn3cnc(-c4ccccc4)cc3=O)C3(CCCC3)C2)[C@H](c2ccc(F)cc2F)C1` [Example 94, 3-(((R)-7-((2S,4R)-2-(2,4-Difluorophenyl)-4-(methylamino)piperidine-1-carbonyl)-7-azaspiro[4.5]decan-10-yl)methyl)-6-phenylpyrimidin-4(3H)-one], the IC50 was below 10 nM.
